Results on 1 compound are retold here after paper PMC5218480 (PLoS ONE, 2017).

The subject of the assay is MV-4-11 cells. The assay can be described thus: Gene expression microarray analysis (Affymetrix PrimeView) and GSEA. It is filed as cell-based, human. The arrangement: RFU PODN (11730768_x_at) / Fold change /veh PODN (11730768_x_at) / RFU LINC00158 (11744669_a_at) / Fold change /veh LINC00158 (11744669_a_at) / RFU DUSP10 (11751237_a_at) / Fold change /veh DUSP10 (11751237_a_at) / RFU ID3 (11757404_x_at) / Fold change /veh ID3 (11757404_x_at) / RFU PLEKHG5 (11737974_s_at) / Fold change /veh PLEKHG5 (11737974_s_at) / RFU LRRC4B (11730491_at) / Fold change /veh LRRC4B (11730491_at) / RFU GIMAP4 (11747438_a_at) / Fold change /veh GIMAP4 (11747438_a_at) / RFU KRT8 (11758183_x_at) / Fold change /veh KRT8 (11758183_x_at) / RFU CNN1 (11734310_a_at) / Fold change /veh CNN1 (11734310_a_at) / RFU VPS37D (11726825_at) / Fold change /veh VPS37D (11726825_at) / RFU C10orf10 (11716522_x_at) / Fold change /veh C10orf10 (11716522_x_at) / RFU KIR2DL2 /// KIR2DL4 /// KIR2DL5A /// KIR2DL5B /// KIR2DS1 /// KIR2DS2 /// KIR2DS3 /// KIR2DS4 /// KIR3DL3 /// KIR3DL3 /// KIR3DS1 (11738374_at) / Fold change /veh KIR2DL2 /// KIR2DL4 /// KIR2DL5A /// KIR2DL5B /// KIR2DS1 /// KIR2DS2 /// KIR2DS3 /// KIR2DS4 /// KIR3DL3 /// KIR3DL3 /// KIR3DS1 (11738374_at) / RFU C1QL1 (11718748_at) / Fold change /veh C1QL1 (11718748_at) / RFU TMPRSS4 (11747572_a_at) / Fold change /veh TMPRSS4 (11747572_a_at) / RFU HAMP (11756126_x_at) / Fold change /veh HAMP (11756126_x_at) / RFU RNFT2 (11725882_a_at) / Fold change /veh RNFT2 (11725882_a_at) / RFU NR4A2 (11747474_a_at) / Fold change /veh NR4A2 (11747474_a_at) / RFU ABCC12 (11746883_a_at) / Fold change /veh ABCC12 (11746883_a_at) / RFU TMEM136 (11760407_x_at) / Fold change /veh TMEM136 (11760407_x_at) / RFU CLDN22 /// WWC2 (11732394_at) / Fold change /veh CLDN22 /// WWC2 (11732394_at) / RFU HLA-DPB1 (11760878_x_at) / Fold change /veh HLA-DPB1 (11760878_x_at) / RFU SPINT1 (11716480_a_at) / Fold change /veh SPINT1 (11716480_a_at) / RFU GAP43 (11754022_s_at) / Fold change /veh GAP43 (11754022_s_at) / RFU A4GNT (11735810_at) / Fold change /veh A4GNT (11735810_at) / RFU PRB3 (11715151_x_at) / Fold change /veh PRB3 (11715151_x_at) / RFU TUBB4B (11761932_at) / Fold change /veh TUBB4B (11761932_at) / RFU CAPN14 (11732068_a_at) / Fold change /veh CAPN14 (11732068_a_at) / RFU TMCC2 (11721928_a_at) / Fold change /veh TMCC2 (11721928_a_at) / RFU IRGQ (11745062_a_at) / Fold change /veh IRGQ (11745062_a_at) / RFU FAM174B (11720279_a_at) / Fold change /veh FAM174B (11720279_a_at) / RFU TMPRSS4 (11748680_a_at) / Fold change /veh TMPRSS4 (11748680_a_at) / RFU FAM212B (11763350_a_at) / Fold change /veh FAM212B (11763350_a_at) / RFU PLEKHG5 (11743358_a_at) / Fold change /veh PLEKHG5 (11743358_a_at) / RFU ZSCAN30 (11745921_a_at) / Fold change /veh ZSCAN30 (11745921_a_at) / RFU CMKLR1 (11741424_a_at) / Fold change /veh CMKLR1 (11741424_a_at) / RFU LOC101060620 /// MAPK8IP1 (11723275_at) / Fold change /veh LOC101060620 /// MAPK8IP1 (11723275_at) / RFU SPTSSB (11747773_x_at) / Fold change /veh SPTSSB (11747773_x_at) / RFU PRSS12 (11739890_at) / Fold change /veh PRSS12 (11739890_at) / RFU BIN1 (11741810_x_at) / Fold change /veh BIN1 (11741810_x_at) / RFU WNT11 (11732464_a_at) / Fold change /veh WNT11 (11732464_a_at) / RFU C10orf10 (11716521_a_at) / Fold change /veh C10orf10 (11716521_a_at) / RFU C5orf56 (11738089_at) / Fold change /veh C5orf56 (11738089_at) / RFU CYB561 (11721691_x_at) / Fold change /veh CYB561 (11721691_x_at) / RFU ANKRD19P (11752326_a_at) / Fold change /veh ANKRD19P (11752326_a_at) / RFU OR2T12 /// OR2T33 /// OR2T8 (11738714_s_at) / Fold change /veh OR2T12 /// OR2T33 /// OR2T8 (11738714_s_at) / RFU VCAN (11748164_a_at) / Fold change /veh VCAN (11748164_a_at) / RFU JSRP1 (11732532_at) / Fold change /veh JSRP1 (11732532_at) / RFU KRTAP10-11 (11738290_x_at) / Fold change /veh KRTAP10-11 (11738290_x_at) / RFU MYO3A (11730013_a_at) / Fold change /veh MYO3A (11730013_a_at) / RFU EBF3 (11725865_a_at) / Fold change /veh EBF3 (11725865_a_at) / RFU CAMK2N1 (11719241_x_at) / Fold change /veh CAMK2N1 (11719241_x_at) / RFU C5orf56 (11738088_a_at) / Fold change /veh C5orf56 (11738088_a_at) / RFU OLFML3 (11715873_a_at) / Fold change /veh OLFML3 (11715873_a_at) / RFU LOC100653217 /// NTM (11731650_a_at) / Fold change /veh LOC100653217 /// NTM (11731650_a_at) / RFU MAPK11 (11762145_a_at) / Fold change /veh MAPK11 (11762145_a_at) / RFU FIZ1 (11724087_x_at) / Fold change /veh FIZ1 (11724087_x_at) / RFU OASL (11726364_x_at) / Fold change /veh OASL (11726364_x_at) / RFU SOX15 (11748057_x_at) / Fold change /veh SOX15 (11748057_x_at) / RFU CD79A (11719716_a_at) / Fold change /veh CD79A (11719716_a_at) / RFU HIST1H1D (11736915_at) / Fold change /veh HIST1H1D (11736915_at) / RFU CASKIN2 (11723855_a_at) / Fold change /veh CASKIN2 (11723855_a_at) / RFU LOC730098 (11760151_x_at) / Fold change /veh LOC730098 (11760151_x_at) / RFU OR4N2 (11742367_at) / Fold change /veh OR4N2 (11742367_at) / RFU PRRT2 (11749266_a_at) / Fold change /veh PRRT2 (11749266_a_at) / RFU SNX32 (11753110_a_at) / Fold change /veh SNX32 (11753110_a_at) / RFU CDHR5 (11726645_a_at) / Fold change /veh CDHR5 (11726645_a_at) / RFU RCAN1 (11760418_a_at) / Fold change /veh RCAN1 (11760418_a_at) / RFU FAM167A (11723789_a_at) / Fold change /veh FAM167A (11723789_a_at) / RFU FAM26E (11764081_at) / Fold change /veh FAM26E (11764081_at) / RFU ISYNA1 (11749810_s_at) / Fold change /veh ISYNA1 (11749810_s_at) / RFU ACY1 (11761880_at) / Fold change /veh ACY1 (11761880_at) / RFU 11764098_at / Fold change /veh 11764098_at / RFU SAMD14 (11745864_x_at) / Fold change /veh SAMD14 (11745864_x_at) / RFU NPB (11741838_a_at) / Fold change /veh NPB (11741838_a_at) / RFU TMPRSS6 (11731388_a_at) / Fold change /veh TMPRSS6 (11731388_a_at) / RFU KRTAP10-2 (11738614_at) / Fold change /veh KRTAP10-2 (11738614_at) / RFU ARHGAP8 /// PRR5-ARHGAP8 (11727945_x_at) / Fold change /veh ARHGAP8 /// PRR5-ARHGAP8 (11727945_x_at) / RFU KRTAP5-7 /// NADSYN1 (11734609_at) / Fold change /veh KRTAP5-7 /// NADSYN1 (11734609_at) / RFU RASL12 (11751679_a_at) / Fold change /veh RASL12 (11751679_a_at) / RFU CDKN2B (11736163_a_at) / Fold change /veh CDKN2B (11736163_a_at) / RFU PRF1 (11729649_at) / Fold change /veh PRF1 (11729649_at) / RFU, ZNF638 /// ZNF638-IT1 / Fold change vs veh, ZNF638 /// ZNF638-IT1 / RFU, PANK3 / Fold change vs veh, PANK3 / RFU, SH3YL1 / Fold change vs veh, SH3YL1 / RFU, ZEB2 / Fold change vs veh, ZEB2 / RFU, NRIP1 / Fold change vs veh, NRIP1 / RFU, PTTG1IP / Fold change vs veh, PTTG1IP / RFU, CAPN2 / Fold change vs veh, CAPN2 / RFU, MED14 / Fold change vs veh, MED14 / RFU, SNORA58 / Fold change vs veh, SNORA58 / RFU, C1orf63 / Fold change vs veh, C1orf63 / RFU, LRRFIP1 / Fold change vs veh, LRRFIP1 / RFU, NDUFAF7 / Fold change vs veh, NDUFAF7 / RFU, SLC12A2 / Fold change vs veh, SLC12A2 / RFU, IBTK / Fold change vs veh, IBTK / RFU, ESF1 / Fold change vs veh, ESF1 / Fold change vs veh, TMEM50B / RFU, TAOK1 / Fold change vs veh, TAOK1 / RFU, ACBD3 / Fold change vs veh, ACBD3 / RFU, TMA16 / Fold change vs veh, TMA16 / RFU, RWDD3 / Fold change vs veh, RWDD3 / RFU, BCAT1 / Fold change vs veh, BCAT1 / RFU, EDEM3 / Fold change vs veh, EDEM3 / RFU, TMEM33 / Fold change vs veh, TMEM33 / RFU, WDR75 / Fold change vs veh, WDR75 / RFU, AHCTF1 / Fold change vs veh, AHCTF1 / RFU, TFRC / Fold change vs veh, TFRC / RFU, ZDHHC17 / Fold change vs veh, ZDHHC17 / RFU, NOM1 / Fold change vs veh, NOM1 / RFU, ARL8B / Fold change vs veh, ARL8B / RFU, ZBTB11 / Fold change vs veh, ZBTB11 / RFU, TAMM41 / Fold change vs veh, TAMM41 / RFU, KIAA1704 /// LOC100996395 / Fold change vs veh, KIAA1704 /// LOC100996395 / RFU, ING1 / Fold change vs veh, ING1 / RFU, TRMT61B / Fold change vs veh, TRMT61B / RFU, FUBP3 / Fold change vs veh, FUBP3 / RFU, TP53 / Fold change vs veh, TP53 / RFU, TNKS2 / Fold change vs veh, TNKS2 / RFU, ZFP14 / Fold change vs veh, ZFP14 / RFU, ACTR2 / Fold change vs veh, ACTR2 / RFU, PPP3R1 / Fold change vs veh, PPP3R1 / RFU, PIK3R1 / Fold change vs veh, PIK3R1 / RFU, HNRNPA1 / Fold change vs veh, HNRNPA1 / RFU, RNF170 / Fold change vs veh, RNF170 / RFU, ZNF28 / Fold change vs veh, ZNF28 / RFU, RNGTT / Fold change vs veh, RNGTT / RFU, OGT / Fold change vs veh, OGT / RFU, BRD1 / Fold change vs veh, BRD1 / RFU, MARS / Fold change vs veh, MARS / RFU, ZNF655 / Fold change vs veh, ZNF655 / RFU, FAHD1 / Fold change vs veh, FAHD1 / RFU, BDP1 / Fold change vs veh, BDP1 / RFU, LRRCC1 / Fold change vs veh, LRRCC1 / RFU, ARID1A / Fold change vs veh, ARID1A / RFU, ZNF146 / Fold change vs veh, ZNF146 / RFU, ZNF330 / Fold change vs veh, ZNF330 / RFU, GPN3 / Fold change vs veh, GPN3 / RFU, C9orf123 / Fold change vs veh, C9orf123 / RFU, N4BP2L2 / Fold change vs veh, N4BP2L2 / RFU, ARFIP1 / Fold change vs veh, ARFIP1 / RFU, FAM179B / Fold change vs veh, FAM179B / RFU, BCL10 / Fold change vs veh, BCL10 / RFU, UHRF1BP1L / Fold change vs veh, UHRF1BP1L / RFU, BET1 / Fold change vs veh, BET1 / RFU, CNOT2 / Fold change vs veh, CNOT2 / RFU, ZNF268 / Fold change vs veh, ZNF268 / Fold change vs veh, ZNF507 / RFU, DGCR2 / Fold change vs veh, DGCR2 / RFU, WDSUB1 / Fold change vs veh, WDSUB1 / Fold change vs veh, HSP90B1 /// MIR3652 / RFU, ADSS / Fold change vs veh, ADSS / RFU, GK / Fold change vs veh, GK / RFU, ZNF148 / Fold change vs veh, ZNF148 / RFU, TAF9 / Fold change vs veh, TAF9 / RFU, SLC1A5 / Fold change vs veh, SLC1A5 / RFU, SLMO2 / Fold change vs veh, SLMO2 / RFU, ABCC4 / Fold change vs veh, ABCC4 / RFU, LOC101060439 /// RAP1B / Fold change vs veh, LOC101060439 /// RAP1B / RFU, RFX7 / Fold change vs veh, RFX7 / RFU, GTPBP10 / Fold change vs veh, GTPBP10 / RFU, CNEP1R1 / Fold change vs veh, CNEP1R1 / RFU, BIVM-ERCC5 /// ERCC5 / Fold change vs veh, BIVM-ERCC5 /// ERCC5 / RFU, ILF3 / Fold change vs veh, ILF3 / RFU 11762660_at / Fold change /veh 11762660_at / RFU VCAN (11757783_s_at) / Fold change /veh VCAN (11757783_s_at) / RFU DDX43 (11728927_at) / Fold change /veh DDX43 (11728927_at) / RFU KRT8 (11758188_x_at) / Fold change /veh KRT8 (11758188_x_at) / RFU NKD1 (11759106_at) / Fold change /veh NKD1 (11759106_at) / RFU SRD5A1 (11742802_a_at) / Fold change /veh SRD5A1 (11742802_a_at) / RFU TPSAB1 /// TPSB2 (11721975_s_at) / Fold change /veh TPSAB1 /// TPSB2 (11721975_s_at) / RFU GSTM3 (11746129_a_at) / Fold change /veh GSTM3 (11746129_a_at) / RFU IL23R (11737362_x_at) / Fold change /veh IL23R (11737362_x_at) / RFU TMEM51 (11727254_a_at) / Fold change /veh TMEM51 (11727254_a_at) / RFU PIWIL2 (11732686_x_at) / Fold change /veh PIWIL2 (11732686_x_at) / RFU ORM1 (11744905_x_at) / Fold change /veh ORM1 (11744905_x_at) / RFU CCDC152 (11743942_at) / Fold change /veh CCDC152 (11743942_at) / RFU ECM1 (11717891_a_at) / Fold change /veh ECM1 (11717891_a_at) / RFU IL23R (11748794_a_at) / Fold change /veh IL23R (11748794_a_at) / RFU TNFAIP8L3 (11732012_x_at) / Fold change /veh TNFAIP8L3 (11732012_x_at) / RFU MBOAT4 (11741988_at) / Fold change /veh MBOAT4 (11741988_at) / RFU 11764193_at / Fold change /veh 11764193_at / RFU TMEM53 (11763286_at) / Fold change /veh TMEM53 (11763286_at) / RFU MAGEB2 (11727129_at) / Fold change /veh MAGEB2 (11727129_at) / RFU TMEM200A (11744735_a_at) / Fold change /veh TMEM200A (11744735_a_at) / RFU CCDC152 (11751479_a_at) / Fold change /veh CCDC152 (11751479_a_at) / RFU FAM211A (11726209_a_at) / Fold change /veh FAM211A (11726209_a_at) / RFU RGS16 (11746705_a_at) / Fold change /veh RGS16 (11746705_a_at) / RFU VCAN (11755009_s_at) / Fold change /veh VCAN (11755009_s_at) / RFU RHOB (11743442_s_at) / Fold change /veh RHOB (11743442_s_at) / RFU RGS16 (11720943_a_at) / Fold change /veh RGS16 (11720943_a_at) / RFU RGS16 (11720944_at) / Fold change /veh RGS16 (11720944_at) / RFU, VPS4B / Fold change vs veh, VPS4B / RFU, CREB1 / Fold change vs veh, CREB1 / RFU, DNAJC13 / Fold change vs veh, DNAJC13 / RFU, GNAQ / Fold change vs veh, GNAQ / RFU, CDK5R1 / Fold change vs veh, CDK5R1 / RFU, ZRANB3 / Fold change vs veh, ZRANB3 / RFU, CUL4A / Fold change vs veh, CUL4A / RFU, CCNY / Fold change vs veh, CCNY / RFU, UFL1 / Fold change vs veh, UFL1 / RFU, COG3 / Fold change vs veh, COG3 / RFU, DIAPH2 / Fold change vs veh, DIAPH2 / RFU, SKA2 / Fold change vs veh, SKA2 / RFU, AFF3 / Fold change vs veh, AFF3 / RFU, LMF1 / Fold change vs veh, LMF1 / RFU, IPO11 / Fold change vs veh, IPO11 / RFU, DFFB / Fold change vs veh, DFFB / RFU, FOXP1 / Fold change vs veh, FOXP1 / RFU, CARD8 / Fold change vs veh, CARD8 / RFU, STRN3 / Fold change vs veh, STRN3 / RFU, ADK / Fold change vs veh, ADK / RFU, RASSF2 / Fold change vs veh, RASSF2 / RFU, WIPF1 / Fold change vs veh, WIPF1 / RFU, LARP1B / Fold change vs veh, LARP1B / RFU, RASA1 / Fold change vs veh, RASA1 / RFU, RB1 / Fold change vs veh, RB1 / RFU, PPFIA1 / Fold change vs veh, PPFIA1 / RFU, MAT2A / Fold change vs veh, MAT2A / RFU, CCT5 / Fold change vs veh, CCT5 / RFU, WDR92 / Fold change vs veh, WDR92 / RFU, CUX1 / Fold change vs veh, CUX1 / RFU, TTC7A / Fold change vs veh, TTC7A / RFU, TMEM135 / Fold change vs veh, TMEM135 / RFU, DEPTOR / Fold change vs veh, DEPTOR / RFU, CPM / Fold change vs veh, CPM / RFU, DNAJB6 / Fold change vs veh, DNAJB6 / RFU, CACNA2D3 / Fold change vs veh, CACNA2D3 / RFU, DTX4 / Fold change vs veh, DTX4 / RFU, TFCP2 / Fold change vs veh, TFCP2 / RFU, GMCL1 /// GMCL1P1 / Fold change vs veh, GMCL1 /// GMCL1P1 / RFU, AEBP2 / Fold change vs veh, AEBP2 / RFU, SNHG1 /// SNORD22 /// SNORD25 /// SNORD26 /// SNORD27 /// SNORD28 /// SNORD29 /// SNORD31 / Fold change vs veh, SNHG1 /// SNORD22 /// SNORD25 /// SNORD26 /// SNORD27 /// SNORD28 /// SNORD29 /// SNORD31 / Fold change (Aza/veh), C12orf56 (ProbeSet 11735607_a_at) / Fold change (ACY-1035/veh), C12orf56 (ProbeSet 11735607_a_at) / Fold change (Aza/veh), FGFR1OP (ProbeSet 11751329_s_at) / Fold change (ACY-1035/veh), FGFR1OP (ProbeSet 11751329_s_at) / Fold change (Aza/veh), VPS36 (ProbeSet 11739960_a_at) / Fold change (ACY-1035/veh), VPS36 (ProbeSet 11739960_a_at) / RFU SYPL1 (11715823_x_at) / Fold change /veh SYPL1 (11715823_x_at) / RFU IGFBP7 (11715501_s_at) / Fold change /veh IGFBP7 (11715501_s_at) / RFU REEP3 (11722064_at) / Fold change /veh REEP3 (11722064_at) / RFU IGLL1 (11728026_x_at) / Fold change /veh IGLL1 (11728026_x_at): dose or concentration left out as unconfirmed. Particulars: MV-4-11 cells, 48 hours.

For the compound `Nc1ccc(-c2cccs2)cc1NC(=O)c1ccc2c(c1)cc(C1CC1)n2CCN1CCOCC1` [ACY-1035], the “Fold change /veh MBOAT4 (11741988_at)” value is reported as 1.14.
